Like-named read-outs stand apart in the source and are kept apart here.
Columns and labels:
OAT1 [1] = target: T1, OAT1 (Homo sapiens, UniProt Q4U2R8); assay: Uptake in HEK293 cells overexpressing OAT1; assay type: in vitro ADME; conditions: OAT1, influx
T1 sequence (Q4U2R8 1-563): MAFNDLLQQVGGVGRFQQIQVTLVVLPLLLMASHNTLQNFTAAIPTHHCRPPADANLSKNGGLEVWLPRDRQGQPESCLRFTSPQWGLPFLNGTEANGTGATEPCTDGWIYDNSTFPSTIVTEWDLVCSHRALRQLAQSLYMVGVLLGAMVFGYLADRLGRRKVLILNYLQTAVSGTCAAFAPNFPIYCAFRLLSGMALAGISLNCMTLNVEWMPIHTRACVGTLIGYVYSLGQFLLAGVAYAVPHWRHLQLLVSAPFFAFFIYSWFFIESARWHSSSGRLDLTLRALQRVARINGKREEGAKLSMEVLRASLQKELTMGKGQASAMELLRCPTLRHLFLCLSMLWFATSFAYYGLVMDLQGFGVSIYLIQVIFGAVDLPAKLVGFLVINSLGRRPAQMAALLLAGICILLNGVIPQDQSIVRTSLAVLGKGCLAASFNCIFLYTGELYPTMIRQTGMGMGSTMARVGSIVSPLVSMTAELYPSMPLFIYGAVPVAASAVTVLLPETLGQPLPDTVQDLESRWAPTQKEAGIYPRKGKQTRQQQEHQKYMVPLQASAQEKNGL

OATP1B3 = target: T2, OATP1B3 (Homo sapiens, UniProt Q9NPD5); assay: Uptake in HEK293 cells overexpressing OATP1B3; assay type: in vitro ADME; conditions: OATP1B3-mediated uptake
T2 sequence (Q9NPD5 1-702): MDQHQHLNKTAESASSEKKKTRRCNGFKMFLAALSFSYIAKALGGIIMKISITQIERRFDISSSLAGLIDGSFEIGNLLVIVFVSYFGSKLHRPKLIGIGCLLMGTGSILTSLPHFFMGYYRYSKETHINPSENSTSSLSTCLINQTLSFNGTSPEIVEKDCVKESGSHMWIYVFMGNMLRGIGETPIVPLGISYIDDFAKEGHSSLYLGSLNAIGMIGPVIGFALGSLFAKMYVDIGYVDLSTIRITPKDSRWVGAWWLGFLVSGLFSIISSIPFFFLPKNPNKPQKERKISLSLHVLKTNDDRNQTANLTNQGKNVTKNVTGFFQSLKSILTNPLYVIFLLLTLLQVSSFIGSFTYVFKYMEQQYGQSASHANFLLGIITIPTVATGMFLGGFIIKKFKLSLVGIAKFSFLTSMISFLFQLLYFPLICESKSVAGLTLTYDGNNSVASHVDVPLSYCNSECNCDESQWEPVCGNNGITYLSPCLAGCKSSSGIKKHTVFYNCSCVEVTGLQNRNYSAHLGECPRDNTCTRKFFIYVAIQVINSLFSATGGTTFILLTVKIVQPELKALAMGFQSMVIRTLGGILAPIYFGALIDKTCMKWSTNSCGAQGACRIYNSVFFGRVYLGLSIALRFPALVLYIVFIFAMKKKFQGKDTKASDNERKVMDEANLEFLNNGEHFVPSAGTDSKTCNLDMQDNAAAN

OCT1 = target: T3, OCT1 (Homo sapiens, UniProt O15245); assay: Uptake in HEK293 cells overexpressing OCT1; assay type: in vitro ADME; conditions: OCT1, influx
T3 sequence (O15245 1-554): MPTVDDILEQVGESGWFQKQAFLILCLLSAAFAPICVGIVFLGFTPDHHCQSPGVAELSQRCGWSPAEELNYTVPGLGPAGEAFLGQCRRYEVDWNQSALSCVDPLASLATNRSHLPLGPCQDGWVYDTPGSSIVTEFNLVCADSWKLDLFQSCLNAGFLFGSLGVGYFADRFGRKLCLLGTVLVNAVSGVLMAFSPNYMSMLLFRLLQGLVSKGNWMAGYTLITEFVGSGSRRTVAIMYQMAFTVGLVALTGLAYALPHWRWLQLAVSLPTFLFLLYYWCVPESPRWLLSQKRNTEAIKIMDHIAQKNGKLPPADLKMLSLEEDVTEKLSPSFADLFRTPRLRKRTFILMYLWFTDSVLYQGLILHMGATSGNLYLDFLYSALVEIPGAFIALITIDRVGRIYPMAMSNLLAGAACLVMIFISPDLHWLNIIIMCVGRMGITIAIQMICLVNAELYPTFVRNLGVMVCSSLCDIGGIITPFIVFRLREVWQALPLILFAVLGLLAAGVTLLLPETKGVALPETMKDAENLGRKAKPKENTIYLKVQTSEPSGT

OAT1 [2] = target: T1, OAT1; assay: Inhibitory effect of catalposide on OAT1 transport activity; assay type: in vitro ADME; conditions: probe 1 μM PAH, catalposide 0–100 μM
BCRP = target: T4, BCRP (Homo sapiens, UniProt Q9UNQ0); assay: Inhibitory effect of catalposide on BCRP transport activity; assay type: in vitro ADME; conditions: probe 0.1 μM [3H]ES, catalposide 1–100 μM
T4 sequence (Q9UNQ0 1-655): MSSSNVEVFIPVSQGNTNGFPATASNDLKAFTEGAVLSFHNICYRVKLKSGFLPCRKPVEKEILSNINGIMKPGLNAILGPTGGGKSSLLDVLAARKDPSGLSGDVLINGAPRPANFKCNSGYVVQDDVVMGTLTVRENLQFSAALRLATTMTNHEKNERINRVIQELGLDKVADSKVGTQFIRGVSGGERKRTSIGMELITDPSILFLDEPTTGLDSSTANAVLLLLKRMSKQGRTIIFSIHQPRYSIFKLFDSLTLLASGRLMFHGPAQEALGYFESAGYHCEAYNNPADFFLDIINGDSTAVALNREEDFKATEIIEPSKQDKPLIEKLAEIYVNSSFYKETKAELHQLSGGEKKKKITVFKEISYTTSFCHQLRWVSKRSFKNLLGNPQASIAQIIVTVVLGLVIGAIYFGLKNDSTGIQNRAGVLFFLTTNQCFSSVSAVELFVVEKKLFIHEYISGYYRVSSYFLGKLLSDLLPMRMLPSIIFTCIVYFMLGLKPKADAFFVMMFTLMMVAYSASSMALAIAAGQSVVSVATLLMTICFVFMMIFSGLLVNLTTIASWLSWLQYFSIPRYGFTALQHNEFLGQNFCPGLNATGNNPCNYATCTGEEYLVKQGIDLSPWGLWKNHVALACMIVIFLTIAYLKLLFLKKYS

[3] = Pharmacokinetics in rats after intravenous administration; assay type: in vivo; conditions: from the cited clearance values
[4] = rats, cited from earlier work
[5] = 3-hour incubation in human plasma; cited from earlier work
[6] = human liver microsomes in the presence of NADPH; cited from earlier work

O=C(O[C@H]1[C@@H]2C=CO[C@@H](O[C@@H]3O[C@H](CO)[C@@H](O)[C@H](O)[C@H]3O)[C@@H]2[C@@]2(CO)O[C@@H]12)c1ccc(O)cc1 [catalposide]
Substrate (OAT1 [1]): not involved
Hill coefficient n (OATP1B3): ~1
Substrate (OCT1): not involved
Inhibitor (OAT1 [2]): did not significantly inhibit
Inhibitor (BCRP): did not significantly inhibit
Share cleared by nonrenal clearance [3]: approximately 90%
Recovery in the urine (unchanged form) ([4]; intravenous 10 mg/kg, % of dose): 9.9%
Distribution volume ([4]; intravenous): 2657.2 ± 1396.9 mL/kg
Nonrenal clearance ([4]; intravenous): 88.2 mL/min/kg
Renal clearance ([4]; intravenous): 8.47 mL/min/kg
Systemic clearance ([4]; intravenous): 96.7 ± 44.2 mL/min/kg
Terminal half-life ([4]; intravenous): 19.3 ± 9.5 min
Stability [5]: remained stable
Stability [6]: remained stable

From publication PMC4310350 (Drug Design, Development and Therapy, 2015)
